Test results from ChEMBL document CHEMBL4396942, “19-Hydroxyeicosatetraenoic acid analogs: Antagonism of 20-hydroxyeicosatetraenoic acid-induced vascular sensitization and hypertension” (Bioorg Med Chem Lett, 2019).
Calls of active or inactive are those of the source. The rule behind the calls is not given here.

Key:
[1] = Vasodilating activity in rat renal preglomerular microvessels assessed as effect on 20-HETE induced sensitization toward phenylephrine at 1 uM relative to 20-HETE; assay type: functional
[2] = Solubility of compound in water; assay type: physicochemical
[3] = system: Mus musculus; assay: Reversal of androgen-driven 20-HETE-induced hypertension in Cyp4a14(-/-) mouse assessed as reduction in systolic blood pressure at 10 mg/kg, ip daily and measured for 10 days; assay type: functional, organism-based
[4] = species: Rattus norvegicus; assay: Vasodilating activity in rat gracilis muscle arteriole assessed as inhibition of 20-HETE induced change in internal diameter; assay type: functional
[5] = species: Rattus norvegicus; assay: Vasodilating activity in rat gracilis muscle arteriole assessed as change in internal diameter; assay type: functional

| SMILES | fold change (FC) [1] | further results |
| --- | --- | --- |
| CC(O)CCCCCCCCCCCC/C=C\CCCC(=O)[O-].[Na+] (centres undefined) | -0.66 |  |
| CC(O)CCCC/C=C\CCCCCCC/C=C\CCCC(=O)NCC(=O)[O-].[Na+] (centres undefined) | 0.58 |  |
| C[C@H](O)CCC/C=C\CCCCCCC/C=C\CCCC(=O)[O-].[Na+] | -0.68 | solubility [2]: 250 µg/mL |
| C[C@@H](O)CCC/C=C\CCCCCCC/C=C\CCCC(=O)N[C@@H](CC(=O)O)C(=O)O |  | Activity [3]: Active; Activity [4]: Dose-dependent effect; Activity [5]: inactive |
| C[C@H](O)CCC/C=C\CCCCCCC/C=C\CCCC(=O)NCC(=O)[O-].[Na+] |  | solubility [2]: 500 µg/mL |
| O=C([O-])CCC/C=C\CCCCCCC/C=C\CCCCO.[Na+] | -0.68 |  |
| C[C@H](O)CCC/C=C\CCCCCCC/C=C\CCCC(=O)N[C@@H](CC(=O)[O-])C(=O)[O-].[Na+].[Na+] | -0.59 |  |
| [N-]=[N+]=N[C@@H](CO)CCC/C=C\CCCCCCC/C=C\CCCC(=O)[O-].[Na+] | 0.5 |  |
| O=C([O-])CNC(=O)CCC/C=C\CCCCCCC/C=C\CCCCO.[Na+] | -0.74 |  |
| [N-]=[N+]=N[C@H](CO)CCC/C=C\CCCCCCC/C=C\CCCC(=O)[O-].[Na+] | 0.16 |  |
| C[C@@H](O)CCC/C=C\CCCCCCC/C=C\CCCC(=O)[O-].[Na+] | -0.85 | solubility [2]: 250 µg/mL |
| CC(O)CCC/C=C\CCCCCCCCCCCCC(=O)[O-].[Na+] (centres undefined) | -0.79 |  |
| C[C@@H](O)CCC/C=C\CCCCCCC/C=C\CCCC(=O)NCC(=O)[O-].[Na+] | -4.47 | solubility [2]: 500 µg/mL |
| CC(O)CCC/C=C\CCCCCCC/C=C\CCCc1nnn[nH]1 (centres undefined) | -0.78 |  |
